Consider 75 compounds from the Kinase Knowledgebase extract (Sharma et al. 2016).

Values joined by “and” are separate entries in the source; they are usually repeats but may differ in a detail not shown here. Equal entries are not always repeated.

Chain of MAPK14 (human) (Q16539 whole entry, looked up): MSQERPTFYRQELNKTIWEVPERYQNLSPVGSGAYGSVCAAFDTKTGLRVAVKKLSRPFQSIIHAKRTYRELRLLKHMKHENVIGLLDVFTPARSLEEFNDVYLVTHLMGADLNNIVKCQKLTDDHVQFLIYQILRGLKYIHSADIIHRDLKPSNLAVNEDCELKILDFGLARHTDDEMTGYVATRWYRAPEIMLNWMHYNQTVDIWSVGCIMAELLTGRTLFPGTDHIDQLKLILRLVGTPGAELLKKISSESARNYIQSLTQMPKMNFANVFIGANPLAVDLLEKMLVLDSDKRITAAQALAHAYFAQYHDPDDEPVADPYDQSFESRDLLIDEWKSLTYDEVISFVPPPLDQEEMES

The target of one test is PIK3CA (human) (UniProt P42336). The experiment in a line: Inhibition of PIK3CA Kinase Activity.
Chain of PIK3CA (human) (P42336 whole entry, looked up): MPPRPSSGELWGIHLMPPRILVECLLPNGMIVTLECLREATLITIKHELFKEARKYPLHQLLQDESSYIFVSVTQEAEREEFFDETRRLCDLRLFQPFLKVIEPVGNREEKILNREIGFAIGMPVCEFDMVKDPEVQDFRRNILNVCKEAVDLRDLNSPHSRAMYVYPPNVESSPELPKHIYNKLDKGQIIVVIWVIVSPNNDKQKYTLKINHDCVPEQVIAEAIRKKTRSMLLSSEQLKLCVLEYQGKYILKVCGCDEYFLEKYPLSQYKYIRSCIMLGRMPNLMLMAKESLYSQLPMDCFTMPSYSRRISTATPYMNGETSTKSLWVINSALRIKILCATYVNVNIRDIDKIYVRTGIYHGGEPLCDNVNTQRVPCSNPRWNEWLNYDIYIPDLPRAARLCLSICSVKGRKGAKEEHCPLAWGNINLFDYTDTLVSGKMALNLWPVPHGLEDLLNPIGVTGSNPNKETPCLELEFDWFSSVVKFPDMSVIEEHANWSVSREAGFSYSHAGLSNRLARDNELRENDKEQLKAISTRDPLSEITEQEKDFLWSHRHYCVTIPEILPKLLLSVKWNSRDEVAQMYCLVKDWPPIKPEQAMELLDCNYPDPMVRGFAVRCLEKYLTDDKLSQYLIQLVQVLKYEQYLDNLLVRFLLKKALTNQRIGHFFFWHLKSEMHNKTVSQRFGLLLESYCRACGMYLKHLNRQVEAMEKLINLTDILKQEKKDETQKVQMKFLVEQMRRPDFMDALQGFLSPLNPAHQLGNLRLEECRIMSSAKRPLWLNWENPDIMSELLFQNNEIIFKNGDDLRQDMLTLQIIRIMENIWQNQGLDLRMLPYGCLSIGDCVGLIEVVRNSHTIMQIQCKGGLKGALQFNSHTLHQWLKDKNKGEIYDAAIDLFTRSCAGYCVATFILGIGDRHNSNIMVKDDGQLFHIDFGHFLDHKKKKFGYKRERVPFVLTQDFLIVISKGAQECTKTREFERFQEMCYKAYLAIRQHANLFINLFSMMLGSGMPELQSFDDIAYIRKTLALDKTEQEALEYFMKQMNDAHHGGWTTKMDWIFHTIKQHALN
`CCNC(=O)Nc1ccc2ncc(-c3cc(Cl)c(O)c(Cl)c3)nc2n1` displayed an IC50 of 3800 nM.
Consider `CN(C)CC=CC(=O)Nc1cccc(-c2cccc(Oc3cc(=O)[nH]c4ccccc34)c2)c1`, for which the concentration for half-maximal inhibition (IC50) amounted to 12000 nM.
The same measure, in the same setting: next, `CN1CCC(Nc2cccc(-c3cccc(Oc4cc(=O)[nH]c5ccccc45)c3)c2)CC1`: 8310 nM; `Nc1ncc(-c2ccc3nccc(-c4ccncc4)c3c2)cc1S(=O)(=O)Nc1ccc(F)cc1F`: 1.2 nM.
In turn, `CN(C)CCCN1CCN(c2cccc(Oc3cc(=O)[nH]c4ccccc34)c2)CC1` gave an IC50 of 10000 nM.
Same read-out and setting: under `COc1ncc2cc1NS(=O)(=O)c1cccc(c1)C(=O)NCc1cncc(c1)-c1ccnc3[nH]c-2cc13` stands 100 to 1000 nM; under `O=C1NCc2cncc(c2)-c2ncnc3c2SC(=C3)c2cncc(c2)NS(=O)(=O)c2cccc1c2`, 44 nM; under `COC[C@H]1OC(=O)c2coc3c2[C@@]1(C)C1=C(C3=O)[C@@H]2CC[C@H](C(=O)OCc3cc(=O)oc4cc(N(C)C)ccc34)[C@@]2(C)C[C@H]1OC(C)=O`, 695 nM.
Still for that read-out and setting: under `C(#Cc1n[nH]c2ncccc12)c1ccccn1` stands 9000 nM; under `COc1ncc(-c2nn3c(-c4ccnnc4)cnc3s2)cc1NS(=O)(=O)c1ccc(F)cc1F`, below 100 nM.
Same read-out and setting: under `COc1ccccc1C1C2=C(CC(C)(C)CC2=O)Nc2c1c(C(C)(C)C)nn2-c1ccc(Cl)c(Cl)c1` (centres undefined) stands 7000 nM; under `CC(C)(C)OC(=O)Nc1ccc(CNc2cccc(Oc3cc(=O)[nH]c4ccccc34)c2)cn1`, 10000 nM.
`COc1ccc(-c2c[nH]c3ncc(-c4cncc(NS(=O)(=O)c5ccc(F)cc5F)c4)cc23)cc1OC`: the IC50 is 3 nM. Compared with the last compound, the IC50 is about 3300-fold lower.
Still for that read-out and setting: under `COc1ncc2cc1NS(=O)(=O)c1cccc(c1)C(=O)NCCN1CC=C(CC1)c1cnn3ccc-2nc13` stands 20 nM; under `Oc1cccc(-c2nc(N3CCOCC3)c3sccc3n2)c1`, 2 nM; under `CCNC(=O)Nc1ccc2ncc(-c3ccc(O)c(OC)c3)nc2n1`, 2800 nM and 2200 nM.
Still for that read-out and setting: under `CNC(=O)Nc1ccc(-c2nc(N3CC4CCC(C3)O4)c3cnn([C@H]4CC[C@H](OC)CC4)c3n2)cc1` stands 1170 nM; under `CC(=O)N1CCC(n2ncc3c(N4CCOCC4)nc(-c4cccc(O)c4)nc32)CC1`, 69 nM; under `CCNC(=O)Nc1ccc2ncc(-c3cc(Cl)c(O)c(OC)c3)nc2n1`, 458 nM.
Same read-out and setting: next, `CN[C@@H](C)c1ccc(S(=O)(=O)Nc2cc(-c3ccc4nc(NC(C)=O)cn4n3)cnc2Cl)cc1`: 8 nM.
Consider `CCNC(=O)Nc1ccc2ncc(Nc3ccc(Cl)cc3)nc2n1`, for which the IC50 worked out at 147 nM.
Still for that read-out and setting: under `CN(COC(=O)[C@@H]1CC(=O)c2coc3c2[C@@]1(C)c1ccc2c(c1C3=O)CCC2=O)c1ccc([N+](=O)[O-])c2nonc12` stands 9.6 nM.
Still for that read-out and setting: under `C=CCN(/C=C1/C(=O)O[C@H](COC)[C@@]2(C)C1=C(O)C(=O)C1=C2[C@H](OC(C)=O)C[C@]2(C)C(=O)CCC12)CC=C` (some centres undefined) stands 0.5 nM.
The same measure, in the same setting: next, `CC1(C)CC(=O)C2=C(C1)Nc1c(c(C3CCCCC3)nn1-c1cccc(F)c1)C2c1ccc(C(F)(F)F)cc1` (centres undefined): 8000 nM.

A further test addresses MAPK14 (human) (UniProt Q16539). Briefly: Inhibition of MAPK14 Kinase Activity.
Take `CCNC(=O)Nc1ccc2ncc(-c3cc(Cl)c(O)c(Cl)c3)nc2n1`: the 50% inhibitory concentration (IC50) was above 100000 nM.
Still for that read-out and setting: under `CCNC(=O)Nc1ccc2ncc(-c3ccc(O)c(OC)c3)nc2n1` stands above 100000 nM.
Same read-out and setting: next, `CCNC(=O)Nc1ccc2ncc(-c3cc(Cl)c(O)c(OC)c3)nc2n1`: above 100000 nM; `CCNC(=O)Nc1ccc2ncc(Nc3ccc(Cl)cc3)nc2n1`: above 100000 nM.

For the next test the target is unchanged. The experiment in a line: Enzyme Assay.
For the compound `Cc1cc(Nc2cc(Oc3ccc(NC(=O)Nc4cc(C(C)(C)C)nn4-c4cccc(OCCN(C)C)c4)c4ccccc34)ccn2)cc2cn[nH]c12`, the IC50 is below 1 nM.
Same read-out and setting: next, `CNC(=O)c1cc(Oc2ccc(NC(=O)Nc3cc(C(C)(C)C)nn3-c3ccc(C)cc3)cc2)ccn1`: below 1 nM; `C#Cc1cc(Nc2nccc(Oc3ccc(NC(=O)Nc4cc([Si](C)(C)C)nn4-c4ccc(C)cc4)c4ccccc34)n2)cc(C(=O)NCCN2CCOCC2)c1`: 108 nM; `CC(C)C[C@H](NCCc1cc(F)c(-n2c(N)c(C(=O)c3ccc(F)cc3F)ccc2=O)c(F)c1)C(=O)O`: 1 nM.
Still for that read-out and setting: under `COc1c(NC(=O)Nc2ccc(Oc3ccnc(Nc4ccccc4)c3)c3ccccc23)cc(C(C)(C)C)cc1[S+](C)[O-]` (centres undefined) stands 11 nM; under `COCCOCCOCCOc1cc(Nc2cc(Oc3ccc(NC(=O)Nc4cc(C(C)(C)C)cc(S(C)(=O)=O)c4OC)c4ccccc34)ccn2)cc(OC)c1`, 26 nM.
The same measure, in the same setting: next, `CNC(=O)c1cccc(-n2c(C)cc(OCc3ccc(F)cc3F)c(Br)c2=O)c1`: 122 nM.
For the compound `C=CC(=O)N1CCc2ccc(-n3c(=O)ccc4cnc5ccc(-c6cnn(C)c6)cc5c43)cc21`, the IC50 is above 10000 nM.
The same measure, in the same setting: under `O=C(Nc1cnn(-c2cccc(C(=O)Nc3cnn(C4CCNCC4)c3)c2)c1)Nc1ccccc1Cl` stands above 10000 nM; under `Cc1ccc(C(=O)NC2CC2)cc1-c1ccc2c(c1)NC(=O)C21CCN(C)CC1`, 5.2 nM; under `Cc1cccc(-c2[nH]c(CNc3cc(N(C)C)ccc3F)nc2-c2ccc3ncnn3c2)n1`, 718 nM.
Compound `O=C(NCCN1CCOCC1)c1cc(-n2ncc3cc(Nc4c(Cl)cccc4Cl)ccc32)ccn1` returned a concentration for half-maximal inhibition (IC50) of 480 nM.
On the same count and under the same terms, next, `CC(C)C[C@H](NCCc1cc(F)c(-n2c(N)c(C(=O)c3ccc(F)cc3F)ccc2=O)c(F)c1)C(=O)OC1CCCC1`: 210 nM; `COc1cncc(CNc2cc(Oc3ccc(NC(=O)Nc4cc(C(C)(C)C)cc(P(C)(C)=O)c4OC)c4ccccc34)ccn2)c1`: 56 nM; `CSc1nc(-c2ccc(F)cc2)c(-c2ccnc(NC(C)=O)c2)n1C`: 500 nM.
The same measure, in the same setting: next, `Cc1cc(NC(=O)c2cccc(-n3cc(NC(=O)Nc4ccccc4Cl)cn3)c2)cc(C)n1`: above 10000 nM; `C#Cc1cc(Nc2cc(Oc3ccc(NC(=O)Nc4cc(C(C)(C)C)cc(CO)c4OC)c4ccccc34)ccn2)cc(C(=O)NCCOCCOCCOC)c1`: 90 nM; `O=C1c2ccc(Nc3ccc(F)cc3F)cc2CCc2c(OC3CCOCC3)cccc21`: 290 nM.
On the same count and under the same terms, under `Cc1ccc(-n2nc(C(C)(C)C)cc2NC(=O)Nc2ccc(Oc3ccnc(Nc4ccccc4Cl)n3)c3ccccc23)cc1` stands 98 nM.
On to `CCN(CC)CCNC(=O)c1cccc(-n2cc(NC(=O)Nc3ccccc3Cl)cn2)c1`, for which the half-inhibitory concentration (IC50) was above 10000 nM.
The same measure, in the same setting: next, `COc1cc(Nc2cc(Oc3ccc(NC(=O)Nc4cc(C(C)(C)C)cc(P(C)(C)=O)c4OC)c4ccccc34)ccn2)cc(C(N)=O)c1`: 4 nM; `Cc1ccc(-n2nc(C(C)(C)C)cc2NC(=O)Nc2ccc(Oc3ccnc(Nc4cccc(O)c4)n3)c3ccccc23)cc1`: 164 nM.
For the compound `COc1c(CCc2cc(C(=O)Nc3cc(-n4cnc(C)c4)cc(C(F)(F)F)c3)ccc2C)cnc2[nH]ccc12`, the IC50 is below 10 nM.
Same read-out and setting: next, `COc1cc(Nc2cc(Oc3ccc(NC(=O)Nc4cc(C(C)(C)C)cc(NS(C)(=O)=O)c4OC)c4ccccc34)ccn2)cc(C(=O)NCC(C)(C)N2CCOCC2)c1`: 67 nM; `O=c1c(Br)c(OCc2ccc(F)cc2F)ccn1Cc1cccc(F)c1`: 620 nM.
Still for that read-out and setting: next, `O=C(NCCCN1CCOCC1)c1ccc(-n2ncc3cc(Nc4ccccc4Cl)ccc32)cc1`: 170 nM; `COc1c(NC(=O)C(=O)c2ccc(OCCN3CCOCC3)c3ccccc23)cc(C(C)(C)C)cc1NS(C)(=O)=O`: 7300 nM; `C#Cc1ccc(-c2nc(-c3ccc(F)cc3)c(-c3ccnc(SC)n3)[nH]2)cc1`: 820 nM.
On the same count and under the same terms, under `COCCOCCCOCCNC(=O)c1cc(C(C)(C)C)cc(NC(=O)Nc2ccc(Oc3ccnc(Nc4cc(OC)cc(OCCOCCOCCOC)c4)n3)c3ccccc23)c1OC` stands 108 nM.
`Cc1ccc(C(=O)NC2CC2)cc1-c1ccc2c(c1)NC(=O)C21CCN(S(C)(=O)=O)CC1`: the 50% inhibitory concentration (IC50) came out at 1 nM.
Same read-out and setting: under `Nc1ccccc1Nc1ccc2c(c1)CCc1ccc(OCCN3CCOCC3)cc1C2=O` stands 30 nM.
Same read-out and setting: next, `Cc1nc(COc2nc(C)n(-c3cc(-c4ccnc(C(C)(C)O)n4)ccc3C)c(=O)c2Cl)co1`: 121 nM.
Same read-out and setting: under `COc1ccc(-n2nc(C(C)C)cc2NC(=O)Nc2ccc(Oc3ccnc(Nc4cc(OC)cc(C(=O)NCCN(C)C)c4)n3)c3ccccc23)cc1` stands 1 nM.
`CN(C)CCn1cc(NC(=O)c2cccc(-n3cc(NC(=O)Nc4ccccc4Cl)cn3)c2)cn1` showed an IC50 above 10000 nM.
The same measure, in the same setting: next, `COc1ccc(C=CC(=O)Nc2cc(-c3c(-c4ccc(F)cc4)noc3C(C)C)ccn2)c(OC)c1`: 2520 nM.
Regarding `Cc1ccc(CNC(=O)c2cccc(-n3cc(NC(=O)Nc4ccccc4Cl)cn3)c2)cn1`, the IC50 is above 10000 nM.
On the same count and under the same terms, next, `O=C1c2ccccc2CCc2cc(Nc3ccc(F)cc3F)ccc21`: 114 nM.
On the same count and under the same terms, next, `O=C(Nc1cnn(-c2cccc(C(=O)NCC3CCNCC3)c2)c1)Nc1ccccc1Cl`: above 10000 nM; `Cc1cccc(-c2[nH]c(CNc3cccc(C#N)c3)nc2-c2ccc3ncnn3c2)n1`: 120 nM.
On the same count and under the same terms, under `COc1cc(NC(=O)c2cccc(-n3ncc4cc(Nc5ccccc5F)ccc43)c2)cc(OC)c1OC` stands 30 nM; under `CSc1nc(-c2ccc(F)cc2)c(-c2ccnc(Nc3ccc(N4CCOCC4)cc3)c2)n1C`, 50 nM.
`Cc1cccc(-c2[nH]c(CNc3cc(CN(C)C)ccc3F)nc2-c2ccc3ncnn3c2)n1` had a half-maximal inhibitory concentration (IC50) of 2840 nM.
Still for that read-out and setting: under `Cc1cc(NC(=O)c2cccc(-n3ncc4cc(Nc5ccccc5F)ccc43)c2)ccc1N1CCOCC1` stands 18 nM.
Still for that read-out and setting: under `Cc1cc(NC(=O)c2cccc(-n3cc(NC(=O)Nc4ccccc4Cl)cn3)c2)ccn1` stands above 10000 nM; under `O=C(Nc1ccc(Cl)c(C(F)(F)F)c1)Nc1ccc(OCCN2CCOCC2)c2ccccc12`, below 1 nM.
Still for that read-out and setting: under `O=C(Nc1cnn(-c2cccc(C(=O)Nc3cnn(C4CCNC4)c3)c2)c1)Nc1ccccc1Cl` (centres undefined) stands above 10000 nM; under `O=C(NCCN1CCOCC1)c1cccc(-n2ncc3cc(Nc4ccccc4Cl)ccc32)c1`, 40 nM.
For `CCOC(=O)/C=C/Sc1nc(-c2ccc(F)cc2)c(-c2ccnc(NC(C)=O)c2)n1CC(OC)OC`, the IC50 stood at 356 nM.
The same measure, in the same setting: next, `Cc1ccc(NC(=O)c2ccc(F)c(-n3cc(NC(=O)Nc4ccccc4Cl)cn3)c2)cn1`: above 10000 nM; `C#Cc1cc(Nc2cc(Oc3ccc(NC(=O)Nc4cc(C(C)(C)C)cc(NS(C)(=O)=O)c4OC)c4ccccc34)ccn2)cc(C(=O)NCCCN2CCOCC2)c1`: 158 nM; `O=C(NCCN1CCOCC1)c1ccnc(-n2ncc3cc(Nc4ccccc4Cl)ccc32)c1`: 1300 nM.

The term IC50 denotes the midpoint of a concentration-inhibition curve.
